From patent US12595253B2, “Benzamides of pyrazolylamino-pyrimidinyl derivatives, and compositions and methods thereof” (LYNK PHARMACEUTICALS CO. LTD., priority 2019, dated 2026)

Assays:
JAK1 = target: T1, JAK1 (Homo sapiens, UniProt P23458); assay: JAK1 microfluidic kinase assay (Caliper EZ Reader II, FAM labeled peptide substrate); assay type: biochemical; details: IC50 JAK1 (5 nM) (1 m MATP), JAK1 5 nM, 1 mM ATP
T1 construct: purchased Carna Biosciences
Summary of the method: (§1)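 Microfluidic mobility-shift assay on Caliper EZ Reader II, FAM-labelled peptide phosphorylation, in 50 mM HEPES, 0.01% Brij35, 10 mM MgCl2, 2 mM DTT, 1% DMSO; enzyme conditions set for 10% substrate conversion.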

JAK2 = target: T2, JAK2 (Homo sapiens, UniProt O60674); assay: JAK2 microfluidic kinase assay (Caliper EZ Reader II, FAM labeled peptide substrate); assay type: biochemical; details: IC50 JAK2 ([…]) (1 mM ATP), 1 mM ATP
T2 construct: purchased Carna Biosciences
T2 sequence (O60674 whole entry): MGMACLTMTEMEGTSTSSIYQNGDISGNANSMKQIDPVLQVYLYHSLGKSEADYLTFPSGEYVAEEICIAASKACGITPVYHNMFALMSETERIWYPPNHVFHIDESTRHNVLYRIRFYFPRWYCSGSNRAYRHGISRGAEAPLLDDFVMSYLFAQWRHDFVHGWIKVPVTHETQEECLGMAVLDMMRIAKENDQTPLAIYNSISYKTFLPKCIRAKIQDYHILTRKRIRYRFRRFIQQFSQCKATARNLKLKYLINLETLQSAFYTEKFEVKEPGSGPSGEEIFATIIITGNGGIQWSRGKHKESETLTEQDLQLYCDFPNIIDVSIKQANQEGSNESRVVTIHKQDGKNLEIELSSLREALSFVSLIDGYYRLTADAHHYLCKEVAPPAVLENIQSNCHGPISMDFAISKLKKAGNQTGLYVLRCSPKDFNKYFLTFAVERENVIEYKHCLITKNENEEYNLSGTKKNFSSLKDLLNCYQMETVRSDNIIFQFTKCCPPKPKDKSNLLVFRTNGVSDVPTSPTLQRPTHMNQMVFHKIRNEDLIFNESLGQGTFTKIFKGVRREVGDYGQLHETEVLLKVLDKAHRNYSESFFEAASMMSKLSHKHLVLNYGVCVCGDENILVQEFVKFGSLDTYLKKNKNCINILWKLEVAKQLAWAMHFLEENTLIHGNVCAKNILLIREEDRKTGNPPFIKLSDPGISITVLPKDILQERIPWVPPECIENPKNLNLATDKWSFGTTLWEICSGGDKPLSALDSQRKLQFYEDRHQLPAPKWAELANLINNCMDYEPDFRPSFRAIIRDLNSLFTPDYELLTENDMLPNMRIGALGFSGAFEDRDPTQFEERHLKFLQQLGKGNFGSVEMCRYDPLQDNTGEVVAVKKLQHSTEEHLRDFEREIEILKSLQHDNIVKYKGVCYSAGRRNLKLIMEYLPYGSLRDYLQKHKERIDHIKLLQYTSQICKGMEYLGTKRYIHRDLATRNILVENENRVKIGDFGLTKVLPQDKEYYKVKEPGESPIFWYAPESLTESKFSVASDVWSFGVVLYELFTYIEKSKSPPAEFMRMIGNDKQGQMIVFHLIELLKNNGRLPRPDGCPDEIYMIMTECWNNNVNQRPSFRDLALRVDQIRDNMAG
Summary of the method: as §1

TYK2 = target: T3, TYK2 (Homo sapiens, UniProt P29597); assay: TYK2 microfluidic kinase assay (Caliper EZ Reader II, FAM labeled peptide substrate); assay type: biochemical; details: IC50 TYK2 ([…]) (1 mM ATP), TYK2 […], 1 mM ATP
T3 construct: purchased Carna Biosciences
T3 sequence (P29597 whole entry): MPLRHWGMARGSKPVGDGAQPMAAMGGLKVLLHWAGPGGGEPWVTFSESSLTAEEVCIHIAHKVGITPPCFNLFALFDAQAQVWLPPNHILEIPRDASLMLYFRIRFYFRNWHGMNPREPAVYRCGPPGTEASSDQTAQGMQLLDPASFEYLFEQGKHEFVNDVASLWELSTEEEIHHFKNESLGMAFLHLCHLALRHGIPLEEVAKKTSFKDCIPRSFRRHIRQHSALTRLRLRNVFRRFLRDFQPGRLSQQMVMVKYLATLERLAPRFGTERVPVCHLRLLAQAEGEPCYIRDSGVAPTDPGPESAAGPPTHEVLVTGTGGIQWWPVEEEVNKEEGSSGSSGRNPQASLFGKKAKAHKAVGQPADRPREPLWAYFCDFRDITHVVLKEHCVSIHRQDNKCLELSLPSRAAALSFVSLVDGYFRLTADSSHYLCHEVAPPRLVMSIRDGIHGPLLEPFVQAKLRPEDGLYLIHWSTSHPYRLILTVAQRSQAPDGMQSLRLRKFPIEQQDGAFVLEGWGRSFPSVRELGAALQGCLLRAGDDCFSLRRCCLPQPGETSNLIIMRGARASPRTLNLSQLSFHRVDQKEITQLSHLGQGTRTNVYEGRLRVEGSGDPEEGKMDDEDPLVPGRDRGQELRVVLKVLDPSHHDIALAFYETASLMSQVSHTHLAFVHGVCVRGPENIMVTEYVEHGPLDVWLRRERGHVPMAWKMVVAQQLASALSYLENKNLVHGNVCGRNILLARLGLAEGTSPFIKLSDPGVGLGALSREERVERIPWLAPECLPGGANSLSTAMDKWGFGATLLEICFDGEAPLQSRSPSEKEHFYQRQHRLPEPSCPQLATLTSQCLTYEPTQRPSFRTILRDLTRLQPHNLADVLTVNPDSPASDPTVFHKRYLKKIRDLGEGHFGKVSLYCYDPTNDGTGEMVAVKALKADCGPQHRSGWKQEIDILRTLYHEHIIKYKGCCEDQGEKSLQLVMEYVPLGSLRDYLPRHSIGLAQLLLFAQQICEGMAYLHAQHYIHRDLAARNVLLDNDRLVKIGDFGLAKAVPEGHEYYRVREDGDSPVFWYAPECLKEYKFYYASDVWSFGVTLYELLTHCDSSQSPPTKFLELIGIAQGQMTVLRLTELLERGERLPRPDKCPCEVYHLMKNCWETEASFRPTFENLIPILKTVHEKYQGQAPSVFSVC
Summary of the method: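 Percent inhibition of peptide phosphorylation, read by microfluidic mobility shift, gave IC50s. Compounds were preincubated with enzyme 10 min before reaction; timing was kinase-specific (JAK1 120 min, TYK2 10 min, JAK2 20 min, JAK2V617F 30 min).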

[1] = Liver microsomes study, Phase I stability (RLM); assay type: in vitro ADME, rat; details: pH 7.4; rat liver microsomes 0.5 mg/mL, 1 μM test article; read-out: RLM Clint
Summary of the method: (§2)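 Rat or human liver microsomes were incubated with test article, and reactions started with an NADPH regenerating system. Samples at 0, 10, 30 and 90 minutes were quenched with cold acetonitrile and analyzed by LC/MS/MS. T½ and CLint came from the ln(% remaining) versus time slope, scaled by protein concentration.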

[2] = Liver microsomes study, Phase I stability (HLM); assay type: in vitro ADME, human; details: pH 7.4; human liver microsomes 0.5 mg/mL, 1 μM test article; read-out: HLM Clint
Summary of the method: as §2

[3] = Mini-pig dermal pharmacokinetic study; assay type: in vivo, Guangxi Bama mini-pigs; details: topical administration
From the text: The aim of this study was to obtain the topical distribution of test articles in mini-pig after topical administration. Test articles were formulated in 50% PEG400, 10% transcutol and 40% PEG3350 (50% in water), and then applied to male Guangxi Bama mini-pigs (17-20 kg). Twenty-four hour prior to dosing, the hair of the mini-pig was shaved in left and right sides of the back. Two areas at least 5 cm apart at each side of the back were exposed (a total of four areas, each of which was about 112 cm^2). At the time zero, the test article was dosed to the exposed skins with […]. After dosing, the blood and skin samples were collected at 0.5, 1, 3, 6 hour. The blood was taken via venipuncture, and collected to the tubes containing heparin sodium as the anticoagulant. Exposed skin was washed with soap and water before skin sample was collected. Upon the dosed skin the punch biopsy from the epidermis layer to the muscle layer were taken at each time point. Epidermis, dermis, subcutis and subcutaneous muscle were quickly separated, weighed and frozen in dry ice. Epidermis and dermis were homogenized in 1:3 (w/v) normal saline. Homogenized samples were extracted with 3 fold volumes of acetonitrile and quantified against a standard curve with LC-MS/MS system.

T1 sequence (P23458 whole entry): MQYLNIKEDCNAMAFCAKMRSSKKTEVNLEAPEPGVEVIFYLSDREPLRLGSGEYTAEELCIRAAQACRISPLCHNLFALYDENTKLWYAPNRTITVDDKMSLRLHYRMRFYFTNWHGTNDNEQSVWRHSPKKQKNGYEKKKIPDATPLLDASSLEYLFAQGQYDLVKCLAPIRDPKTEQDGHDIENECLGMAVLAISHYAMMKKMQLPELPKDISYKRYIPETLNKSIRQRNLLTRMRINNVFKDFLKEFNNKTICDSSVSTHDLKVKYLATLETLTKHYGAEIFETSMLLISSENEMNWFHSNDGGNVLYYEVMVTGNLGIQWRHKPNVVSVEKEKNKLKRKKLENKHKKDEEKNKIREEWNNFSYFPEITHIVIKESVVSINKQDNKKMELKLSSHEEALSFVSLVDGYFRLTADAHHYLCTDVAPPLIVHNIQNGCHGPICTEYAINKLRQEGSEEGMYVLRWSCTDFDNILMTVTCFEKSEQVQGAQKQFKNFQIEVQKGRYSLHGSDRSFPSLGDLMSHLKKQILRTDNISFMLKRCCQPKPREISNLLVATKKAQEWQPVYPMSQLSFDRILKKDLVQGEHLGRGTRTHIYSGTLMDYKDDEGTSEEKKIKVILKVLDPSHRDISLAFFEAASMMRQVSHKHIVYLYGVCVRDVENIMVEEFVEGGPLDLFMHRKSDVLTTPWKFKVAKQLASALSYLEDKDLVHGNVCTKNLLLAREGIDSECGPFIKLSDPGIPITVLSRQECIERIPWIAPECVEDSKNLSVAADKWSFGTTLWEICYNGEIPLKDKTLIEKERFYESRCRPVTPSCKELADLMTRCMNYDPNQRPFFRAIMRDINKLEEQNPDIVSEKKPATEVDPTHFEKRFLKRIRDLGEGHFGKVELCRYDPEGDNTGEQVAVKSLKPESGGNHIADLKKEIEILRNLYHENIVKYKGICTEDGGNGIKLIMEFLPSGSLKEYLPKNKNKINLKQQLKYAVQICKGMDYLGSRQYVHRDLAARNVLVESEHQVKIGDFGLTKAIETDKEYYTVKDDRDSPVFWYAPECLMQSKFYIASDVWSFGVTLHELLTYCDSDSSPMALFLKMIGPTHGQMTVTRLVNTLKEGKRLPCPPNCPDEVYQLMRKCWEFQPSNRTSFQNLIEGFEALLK

Compound `Cc1cnc(Nc2cnn(C3CC(C)(C)OC(C)(C)C3)c2)nc1-c1ccc(C(=O)N[C@@H](C)C#N)cc1` [Example 173, (S)—N-(1-cyanoethyl)-4-(5-methyl-2-((1-(2,2,6,6-tetramethyltetrahydro-2H-pyran-4-yl)-1H-pyrazol-4-yl)amino)pyrimidin-4-yl)benzamide] has an IC50 (JAK1) of 15.2 nM, an IC50 (JAK2) of less than 0.25 nM and an IC50 (TYK2) of 1.07 nM. For the same compound, the microsomal CLint at 1 μM [1] was 69.4 µL/min/mg, the microsomal CLint at 1 μM [2] was 456 µL/min/mg and the AUC(0-t) ([3]; male, Guangxi Bama, minipig, topical or ocular, 25 μL/m^2 at 6 ml/mL, plasma, read-out: Plasma AUC0-last) was 17.3 ng·h/mL. The “Dermis/plasma ratio (AUC)” value [3] was 273X and the “Epiermis/plasma ratio (AUC)” value [3] was 4396X.
